What all share (type): cell-based
For experiment [1], the system named is Type III protein secretion of ExoU by P. aeruginosa PA103. The experiment can be described thus: Tertiary assay: Type III-dependent secretion of ExoU by P. aeruginosa PA103. The conditions noted are these: Pseudomonas aeruginosa, read-out: ExoU IC50(uM). An excerpt:
Tertiary assay: inhibition of Type III protein secretion of effectors from a Pseudomonas aeruginosa system. Type III protein secretion is used by P. aeruginosa to secrete several essential virulence determinants. One effector of the type III protein secretion system of P. aeruginosa PA 103 is the virulence determinants ExoU.
The amount of Type III-dependent secretion of ExoU by P. aeruginosa PA103 can be determined in a cell-based assay by quantification of the 73.9 kDa ExoU protein secreted into the extracellular medium. Such quantitation can be achieved by growing strain PA 103 in a deferrated medium in the presence of nitrilotriacetic acid (an inducer of Type III protein secretion in P. aeruginosa) and either in the presence or absence of putative inhibitors. After a prolonged growth period, the cells are sedimented and the supernatants concentrated by ammonium sulfate precipitation. The proteins in the resuspended pellets are separated by electrophoresis on SDS-polyacrylamide gels. After staining gels with Colloidal Blue™, the 73.9 kDa ExoU band is quantitated by scanning through an imager. The effects of inhibitors on the intensity of the ExoU band may be measured relative to that of untreated controls.

Experiment [2] has as its system SPI1 type III protein secretion of SipB by S. enterica. The experiment can be described thus: Secondary assay: Type III-dependent protein secretion of the SipB polypeptide by S. enterica. As to conditions: Salmonella enterica, read-out: SipB IC50(uM). The protocol:
Secondary assay: Type III-dependent protein secretion of the SipB polypeptide by S. enterica. The SipB protein of S. enterica is another effector of the SPI1 type III protein secretion system from S. enterica. In this cell-based procedure, the Type III-dependent secretion of SipB from the bacterial cytoplasm to the extracellular medium was measured through its reactivity with a cognate mouse monoclonal.
Salmonella enterica cells growing either in the presence or in the absence of inhibitors are induced for the production of SipB. Following an established period of growth the cells are sedimented and the amount of SipB present in the supernatant is quantified with a scanning imager following application of immunoblot techniques. Detection may employ an anti-SipB mouse monoclonal antibody (e.g., obtained from Jorge Galan, SUNY at Stony Brook, N.Y.) followed by treatment with commercially available sheep anti-mouse polyclonal antibody conjugated with horseradish peroxidase. Thereafter the membrane is treated with a peroxidase chemiluminescent substrate and exposed to film for an appropriate exposure time. Inhibition may be measured relative to untreated controls.

The subject of experiment [3] is SPI1 type III protein secretion of SopE'-'Bla by Salmonella enterica. As to the kind of experiment: Primary assay: Type III protein secretion of the chimeric SopE'-'Bla polypeptide by Salmonella enterica. The conditions noted are these: read-out: SopE IC50(uM). The gist of the method:
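S. enterica grown under SPI1-favouring conditions was induced to express SopE′-′Bla (SopE secretion signal fused to signal-less TEM-1 β-lactamase) and cultured with or without compound for a set time. Secreted reporter was quantified by colorimetric hydrolysis of cell-impermeant nitrocefin added to the cultures.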

SMILES strings stand for the structures.

For the compound `CC1CCN(c2cc(C(=O)NC(Cc3ccc(Cl)cc3)C(=O)O)nc(-c3ccc(Oc4ccccc4)cc3)n2)CC1` (stereo not drawn) [Compound 39, 3-(4-Chlorophenyl)-2-{[6-(4-methylpiperidin-1-yl)-2-(4-phenoxyphenyl)-pyrimidine-4-carbonyl]amino}propionic acid], the IC50 (in general, the midpoint of a concentration-inhibition curve) is 74.5 µM in experiment [1], 13.2 µM in experiment [2] and 1.5 µM in experiment [3].
Consider `N#Cc1ccc(-c2nc(C(=O)N[C@@H](CSCc3ccccc3)C(=O)O)cc(N3CCN(c4ccccc4)CC3)n2)cc1` [Compound 25, (R)-3-Benzylsulfanyl-2-{[2-(4-cyanophenyl)-6-(4-phenyl-piperazin-1-yl)-pyrimidine-4-carbonyl]amino}propionic acid], for which the figures for the IC50 in experiment [1], in experiment [2] and in experiment [3] were 57.2 µM, 51.9 µM and 6.5 µM, respectively.
`Cc1cc(C(=O)NC(Cc2ccc(Cl)cc2)C(=O)O)nc(-c2ccc(-c3ccccc3)cc2)n1` (stereo not drawn) [Compound 1, 2-[(2-Biphenyl-4-yl-6-methyl-pyrimidine-4-carbonyl)amino]-3-(4-chlorophenyl)-propionic acid]: the 50% inhibitory concentration (IC50) in experiment [1] came out at 83.9 µM; in experiment [2], 4.4 µM; in experiment [3], 7.4 µM.
Turning to `O=C(N[C@H](Cc1ccc(Cl)cc1)C(=O)O)c1cc(N2CCC(c3ccccc3)CC2)nc(-c2cccc(C(F)(F)F)c2)n1` [Compound 12, (R)-3-(4-Chlorophenyl)-2-{[6-(4-phenylpiperidin-1-yl)-2-(3-trifluoromethyl-phenyl)pyrimidine-4-carbonyl]amino}propionic acid], the IC50 was greater than 100 µM in experiment [1], 28.1 µM in experiment [2] and 1.4 µM in experiment [3].
In the same order, the values of `CC1CCN(c2cc(C(=O)N[C@@H](COCc3ccccc3)C(=O)O)nc(-c3ccc(Oc4ccccc4)cc3)n2)CC1` [Compound 38, (S)-3-Benzyloxy-2-{[6-(4-methylpiperidin-1-yl)-2-(4-phenoxyphenyl)pyrimidine-4-carbonyl]amino}propionic acid] are 82.8 µM, 7.1 µM and 1.3 µM.
In the same order, the values of `O=C(N[C@H](Cc1ccc(Cl)cc1)C(=O)O)c1cc(N2CCC(c3ccccc3)CC2)nc(-c2ccc(C(F)(F)F)cc2)n1` [Compound 15, (R)-3-(4-Chlorophenyl)-2-{[6-(4-phenylpiperidin-1-yl)-2-(4-trifluoromethylphenyl)-pyrimidine-4-carbonyl]amino}propionic acid] are 68.1 µM, 8.5 µM and 3.6 µM.
Regarding `O=C(N[C@@H](CSCc1ccccc1)C(=O)O)c1cc(N2CCN(c3ccccc3)CC2)nc(-c2ccc(C(F)(F)F)cc2)n1` [Compound 23, (R)-3-Benzylsulfanyl-2-{[6-(4-phenyl-piperazin-1-yl)-2-(4-trifluoromethylphenyl)-pyrimidine-4-carbonyl]amino}propionic acid], the IC50 worked out at 73 µM in experiment [1], 31.7 µM in experiment [2] and 3.3 µM in experiment [3].
The corresponding values for `CC1CCN(c2nc(C(=O)N[C@@H](COCc3ccccc3)C(=O)O)cc(N3CCN(c4nccc(C(F)(F)F)n4)CC3)n2)CC1` [Compound 47, (S)-3-Benzyloxy-2-({2-(4-methylpiperidin-1-yl)-6-[4-(4-trifluoromethylpyrimidin-2-yl)piperazin-1-yl]pyrimidine-4-carbonyl}amino)propionic acid] are greater than 100 µM, 10.4 µM and 4.5 µM.
In the same order, the values of `Cc1cc(C(=O)N[C@@H](COCc2ccccc2)C(=O)O)nc(-c2ccc(-c3ccccc3)cc2)n1` [Compound 36, (S)-3-Benzyloxy-2-[(2-biphenyl-4-yl-6-methyl-pyrimidine-4-carbonyl)amino]-propionic acid] are greater than 100 µM, 79.6 µM and 32.7 µM.
With `CC1CCN(c2nc(C(=O)NC(Cc3ccc(Cl)cc3)C(=O)O)cc(N3CCN(c4nccc(C(F)(F)F)n4)CC3)n2)CC1` (stereo not drawn) [Compound 48, 3-(4-Chlorophenyl)-2-({2-(4-methylpiperidin-1-yl)-6-[4-(4-trifluoromethyl-pyrimidin-yl)piperazin-1-yl]pyrimidine-4-carbonyl}amino)propionic acid], the IC50 was greater than 100 µM in experiment [1], 40 µM in experiment [2] and 1.3 µM in experiment [3].
Turning to `CN(C)c1ccc(-c2nc(C(=O)N[C@@H](COCc3ccccc3)C(=O)O)cc(N3CCN(c4nccc(C(F)(F)F)n4)CC3)n2)cc1` [Compound 49, (S)-3-Benzyloxy-2-({2-(4-dimethylaminophenyl)-6-[4-(4-trifluoromethylpyrimidin-2-yl)piperazin-1-yl]pyrimidine-4-carbonyl}amino)propionic acid], the IC50 in experiment [1] worked out at 92.6 µM; in experiment [2], 7.2 µM; in experiment [3] it was 5.9 µM.
Regarding `O=C(N[C@@H](COCc1ccccc1)C(=O)O)c1cc(-c2ccc(Cl)c(Cl)c2)nc(N2CCN(c3ccccc3)CC2)n1` [Compound 32, (S)-3-Benzyloxy-2-{[6-(3,4-dichlorophenyl)-2-(4-phenyl-piperazin-1-yl)-pyrimidine-4-carbonyl]amino}propionic acid], the figures for the 50% inhibitory concentration (IC50) in experiment [1], in experiment [2] and in experiment [3] were 40.7 µM, 5.7 µM and 3.2 µM, respectively.
With `O=C(N[C@@H](CSCc1ccccc1)C(=O)O)c1cc(N2CCCCC2)nc(-c2ccc(-c3ccccc3)cc2)n1` [Compound 3, (R)-3-Benzylsulfanyl-2-[(2-biphenyl-4-yl-6-piperidin-1-yl-pyrimidine-4-carbonyl)-amino]propionic acid], the IC50 came out at 37.6 µM in experiment [1], 3 µM in experiment [2] and 4.1 µM in experiment [3].
The corresponding values for `O=C(N[C@H](Cc1ccc(Cl)cc1)C(=O)O)c1cc(N2CCCc3ccccc32)nc(-c2cccc(C(F)(F)F)c2)n1` [Compound 13, (R)-3-(4-Chlorophenyl)-2-{[6-(3,4-dihydro-2H-quinolin-1-yl)-2-(3-trifluoromethyl-phenyl)pyrimidine-4-carbonyl]amino}propionic acid] are greater than 100 µM, 19.4 µM and 1.3 µM.
The corresponding values for `Cc1cc(C(=O)NC(CSCc2ccccc2)C(=O)O)nc(-c2ccc(-c3ccccc3)cc2)n1` (stereo not drawn) [Compound 35, 3-Benzylsulfanyl-2-[(2-biphenyl-4-yl-6-methyl-pyrimidine-4-carbonyl)-amino]-propionic acid] are greater than 100 µM, 59.2 µM and 17.7 µM.
For the compound `O=C(N[C@@H](CSCc1ccccc1)C(=O)O)c1cc(N2CCC(c3ccc(F)cc3)CC2)nc(-c2ccc(Cl)c(Cl)c2)n1` [Compound 17, (R)-3-Benzylsulfanyl-2-({2-(3,4-dichlorophenyl)-6-[4-(4-fluorophenyl)piperidin-1-yl]pyrimidine-4-carbonyl}amino)propionic acid], the IC50 in experiment [1] was greater than 100 µM; in experiment [2] it was 23 µM; in experiment [3], 1.6 µM.
In the case of `CC1CCN(c2cc(C(=O)N[C@@H](CSCc3ccccc3)C(=O)O)nc(-c3ccc(-c4ccccc4)cc3)n2)CC1` [Compound 40, (R)-3-Benzylsulfanyl-2-{[2-biphenyl-4-yl-6-(4-methylpiperidin-1-yl)pyrimidine-4-carbonyl]amino}propionic acid], the results for the IC50 in experiment [1], in experiment [2] and in experiment [3] were 61.2 µM, 23 µM and 5.1 µM, respectively.
In the same order, the values of `O=C(N[C@H](COCc1ccccc1)C(=O)O)c1cc(N2CCC(c3ccccc3)CC2)nc(-c2ccc(Cl)c(Cl)c2)n1` [Compound 11, (R)-3-Benzyloxy-2-{[2-(3,4-dichlorophenyl)-6-(4-phenylpiperidin-1-yl)-pyrimidine-4-carbonyl]amino}propionic acid] are 92.2 µM, 44.2 µM and 1.4 µM.
In the same order, the values of `O=C(N[C@H](Cc1ccc(Cl)cc1)C(=O)O)c1cc(N2CCCCC2)nc(N2CCC(c3ccccc3)CC2)n1` [Compound 4, (R)-3-(4-Chlorophenyl)-2-{[2-(4-phenylpiperidin-1-yl)-6-piperidin-1-yl-pyrimidine-4-carbonyl]amino}propionic acid] are greater than 100 µM, 27 µM and 2 µM.
